Laboratory results: ChEMBL document CHEMBL5352412, “Discovery of 1,2-diphenylethene derivatives as human DNA topoisomerase II catalytic inhibitors and antitumor agents” (Eur J Med Chem, 2022)

Columns and labels:
MDA-MB-231 = assay: Antiproliferative activity against human MDA-MB-231 cells incubated for 72 hrs by CCK8 assay; format: functional, cell-based; conditions: Homo sapiens, MDA-MB-231, 72 h
HepG2 = assay: Antiproliferative activity against human HepG2 cells incubated for 72 hrs by CCK8 assay; format: functional, cell-based; conditions: Homo sapiens, HepG2, 72 h
[1] = target: T1, DNA topoisomerase 2-alpha (Homo sapiens, UniProt P11388); assay: Inhibition of human topoisomerase 2-alpha assessed as reduction in relaxation of pBR322 DNA at 100 uM measured after 30 mins by agarose gel electrophoresis method relative to control
T1 sequence (P11388 whole entry): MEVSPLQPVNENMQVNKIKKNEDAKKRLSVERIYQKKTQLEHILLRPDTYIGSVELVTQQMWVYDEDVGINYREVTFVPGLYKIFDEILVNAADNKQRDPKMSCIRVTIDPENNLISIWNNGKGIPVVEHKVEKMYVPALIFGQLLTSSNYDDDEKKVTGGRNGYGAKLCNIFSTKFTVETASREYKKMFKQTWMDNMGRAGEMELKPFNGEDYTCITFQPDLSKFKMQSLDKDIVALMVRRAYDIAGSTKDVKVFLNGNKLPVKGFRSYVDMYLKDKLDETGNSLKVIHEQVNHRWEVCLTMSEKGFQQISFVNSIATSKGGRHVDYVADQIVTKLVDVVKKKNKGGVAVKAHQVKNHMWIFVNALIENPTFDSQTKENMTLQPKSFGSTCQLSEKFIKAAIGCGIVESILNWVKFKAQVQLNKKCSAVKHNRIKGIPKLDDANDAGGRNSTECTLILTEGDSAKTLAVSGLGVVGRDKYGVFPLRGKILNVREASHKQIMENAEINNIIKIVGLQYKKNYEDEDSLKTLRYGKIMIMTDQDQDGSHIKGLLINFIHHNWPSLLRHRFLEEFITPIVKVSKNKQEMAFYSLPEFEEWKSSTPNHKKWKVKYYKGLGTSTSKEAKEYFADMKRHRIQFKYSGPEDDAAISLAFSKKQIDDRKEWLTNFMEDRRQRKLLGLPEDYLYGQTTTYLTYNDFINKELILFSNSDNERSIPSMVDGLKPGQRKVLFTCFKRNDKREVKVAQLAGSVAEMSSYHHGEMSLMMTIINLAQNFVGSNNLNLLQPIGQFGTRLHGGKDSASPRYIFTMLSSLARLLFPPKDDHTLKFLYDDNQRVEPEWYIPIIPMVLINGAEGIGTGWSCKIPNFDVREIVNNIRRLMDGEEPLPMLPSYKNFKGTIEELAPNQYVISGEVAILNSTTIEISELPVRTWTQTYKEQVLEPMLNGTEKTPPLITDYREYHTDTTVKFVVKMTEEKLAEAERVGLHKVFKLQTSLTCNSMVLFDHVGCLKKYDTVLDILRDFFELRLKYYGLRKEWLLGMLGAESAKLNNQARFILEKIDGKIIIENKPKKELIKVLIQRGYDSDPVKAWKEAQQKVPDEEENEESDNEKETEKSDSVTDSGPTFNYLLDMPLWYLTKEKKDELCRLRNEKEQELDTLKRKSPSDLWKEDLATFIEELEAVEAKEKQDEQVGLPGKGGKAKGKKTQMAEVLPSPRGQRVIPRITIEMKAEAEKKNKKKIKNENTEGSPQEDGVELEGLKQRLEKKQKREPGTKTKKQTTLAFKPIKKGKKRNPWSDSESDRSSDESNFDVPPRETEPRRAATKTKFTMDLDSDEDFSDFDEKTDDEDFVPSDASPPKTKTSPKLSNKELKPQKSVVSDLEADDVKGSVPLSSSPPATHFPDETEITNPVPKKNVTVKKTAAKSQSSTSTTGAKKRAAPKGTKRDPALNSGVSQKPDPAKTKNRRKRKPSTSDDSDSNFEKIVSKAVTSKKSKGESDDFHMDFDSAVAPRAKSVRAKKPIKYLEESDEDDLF

[2] = target: T1, DNA topoisomerase 2-alpha; assay: Inhibition of human topoisomerase 2-alpha assessed as reduction in relaxation of pBR322 DNA at 25 uM measured after 30 mins by agarose gel electrophoresis method relative to control

| Structure (SMILES) | IC50 (MDA-MB-231) [µM] | IC50 (HepG2) [µM] | inhibition [1] [%] | inhibition [2] [%] |
| --- | --- | --- | --- | --- |
| CCCNC(=O)/C=C/c1ccc(/C=C/c2cc(O)cc(O)c2)cc1 | 7.8 | 23.7 | 65.9 | 26.8 |
| Oc1ccc(-c2cc(/C=C/c3cc(O)cc(O)c3)ccc2O)cc1 | 39.2 | – | 64 | 17.6 |
| C/C=C/C(=O)Nc1cc(/C=C/c2cc(O)cc(O)c2)ccc1O | 21.1 | 32 | 9.9 | 0.2 |
| O=[N+]([O-])c1cccc(-c2ccc(O)c(/C=C/c3cc(O)cc(O)c3)c2)c1 | 12.6 | 18.6 | 95.5 | 75.4 |
| O=C(/C=C/c1ccc(/C=C/c2cc(O)cc(O)c2)cc1)N1CCCCC1 | 5.7 | 14 | 71.1 | 6.9 |
| CN(C)C(=O)/C=C/c1ccc(/C=C/c2cc(O)cc(O)c2)cc1 | 19.9 | – | 47.8 | 0.1 |
| Oc1cc(O)cc(/C=C/c2ccc(O)c(-c3ccsc3)c2)c1 | 22.6 | 34 | 86.8 | 15.2 |
| O=C(/C=C/c1ccccc1)Nc1cc(/C=C/c2cc(O)cc(O)c2)ccc1O | 13.6 | 24.3 | 94.5 | 79.5 |
| COc1cc(CCc2ccc(NC(=O)CCc3ccccc3)cc2)cc(OC)c1 | 12 | 3.5 | 1.2 | – |
| O=C(/C=C/c1ccc(O)c(/C=C/c2cc(O)cc(O)c2)c1)N1CCCCC1 | 19.8 | – | 91.3 | 18.3 |
| C/C=C/C(=O)Nc1ccc(/C=C/c2cc(O)cc(O)c2)cc1 | 3.8 | 4.6 | 12.5 | 0.4 |
| O=C(/C=C/c1ccccc1)Nc1ccc(NC(=O)c2cc(O)cc(O)c2)cc1 | – | 36.6 | 67.2 | 27.1 |
| Oc1cc(O)cc(/C=C/c2cc(-c3ccccc3)ccc2O)c1 | 7.2 | 9.5 | 87.9 | 81.3 |
| O=C(/C=C/c1cc(/C=C/c2cc(O)cc(O)c2)ccc1O)N1CCCCC1 | 16.7 | 30 | 84.5 | 7.1 |
| Oc1cc(O)cc(/C=C/c2ccc(O)c(-c3ccoc3)c2)c1 | 26.6 | 36.8 | 77.4 | 12.6 |
| CCCNC(=O)/C=C/c1cc(/C=C/c2cc(O)cc(O)c2)ccc1O | – | – | 59.6 | 1.7 |
| NC(=O)/C=C/c1ccc(O)c(/C=C/c2cc(O)cc(O)c2)c1 | – | – | 76.6 | 18.4 |
| O=C(CCc1ccccc1)Nc1ccc(-c2cnc3cc(O)ccc3c2)cc1 | – | – | 9.7 | – |
| COc1ccc2nc(-c3ccc(N)cc3)sc2c1 | 37.2 | – | – | – |
| O=C(CCc1ccccc1)Nc1ccc(/C=C/c2cc(O)cc(O)c2)cc1 | 33.9 | 14.5 | 62.5 | 16.4 |
| Oc1ccc(-c2ccc(/C=C/c3cc(O)cc(O)c3)cc2)cc1 | 7.8 | 10.6 | 83.8 | 57.1 |
| Oc1cc(O)cc(/C=C/c2ccc(-c3ccoc3)cc2)c1 | 27.5 | 24.5 | 66.1 | 30.4 |
| Oc1cc(O)cc(/C=C/c2ccc(-c3ccccc3)cc2)c1 | 10.5 | 18 | 81.2 | 12.2 |
| COc1ccc2cc(-c3ccc(NC(=O)/C=C/c4ccccc4)cc3)cnc2c1 | 39.5 | 37.4 | 0.1 | – |
| O=C(/C=C/c1ccccc1)Nc1ccc(CCc2cc(O)cc(O)c2)cc1 | 4.2 | 2.8 | 11.3 | – |
| COc1cc(/C=C/c2ccc(NC(=O)/C=C/c3ccccc3)cc2)cc(OC)c1 | – | – | 15.3 | 0.1 |
| Oc1cc(O)cc(/C=C/c2ccc(-c3cccc(O)c3)cc2)c1 | 11.3 | 18 | 82.9 | 63.2 |
| Oc1cc(O)cc(/C=C/c2ccc(O)c(-c3cccc(O)c3)c2)c1 | 42.3 | – | 72.1 | 34.5 |

| Structure (SMILES) | IC50 (MDA-MB-231) [µM] | IC50 (HepG2) [µM] | inhibition [1] [%] | inhibition [2] [%] |
| --- | --- | --- | --- | --- |
| O=C(CCc1ccccc1)Nc1ccc(-c2nc3ccc(O)cc3s2)cc1 | 12.1 | 4 | 86.8 | 7.5 |
| CNC(=O)/C=C/c1ccc(/C=C/c2cc(O)cc(O)c2)cc1 | – | – | 29.7 | 2.3 |
| Oc1cc(O)cc(/C=C/c2cc(-c3ccsc3)ccc2O)c1 | 9.5 | 8.2 | 88.4 | 75.2 |
| COc1cc(CCc2ccc(NC(=O)/C=C/c3ccccc3)cc2)cc(OC)c1 | 21.8 | – | 0.04 | – |
| Oc1cc(O)cc(/C=C/c2ccc(O)c(-c3ccccc3)c2)c1 | 42.4 | – | 87.2 | 10.5 |
| COc1cc(/C=C/c2ccc(NC(=O)CCc3ccccc3)cc2)cc(OC)c1 | 7.2 | 10.9 | 0.2 | – |
| Oc1cc(O)cc(/C=C/c2cc(-c3cccc(O)c3)ccc2O)c1 | 31.2 | 29.1 | 90.7 | 79.3 |
| O=[N+]([O-])c1cccc(-c2ccc(/C=C/c3cc(O)cc(O)c3)cc2)c1 | 11.4 | 16.2 | 68.7 | 55.3 |
| COc1ccc2nc(-c3ccc(NC(=O)CCc4ccccc4)cc3)sc2c1 | – | – | 0 | – |
| COc1ccc2cc(-c3ccc(NC(=O)/C=C/c4ccccc4)cc3)ccc2c1 | – | – | 0.1 | – |
| O=C(CCc1ccccc1)Nc1ccc(NC(=O)c2cc(O)cc(O)c2)cc1 | – | – | 54.5 | 4.1 |
| COc1ccc2nc(-c3ccc(NC(=O)/C=C/c4ccccc4)cc3)sc2c1 | – | – | 36.7 | 0 |
| COc1cc(OC)cc(C(=O)Nc2ccc(NC(=O)/C=C/c3ccccc3)cc2)c1 | – | – | 2.1 | – |
| COc1ccc2cc(-c3ccc(NC(=O)CCc4ccccc4)cc3)ccc2c1 | – | – | 0 | – |
| O=C(CCc1ccccc1)Nc1ccc(CCc2cc(O)cc(O)c2)cc1 | 4.6 | 2.9 | 9.1 | – |
| COc1ccc2cc(-c3ccc(NC(=O)CCc4ccccc4)cc3)cnc2c1 | 21.1 | – | 19.7 | 0 |
| O=[N+]([O-])c1cccc(-c2cc(/C=C/c3cc(O)cc(O)c3)ccc2O)c1 | 33.2 | – | 93.6 | 97.1 |
| COc1cc(OC)cc(C(=O)Nc2ccc(NC(=O)CCc3ccccc3)cc2)c1 | – | – | 3.7 | – |
| CNC(=O)/C=C/c1ccc(O)c(/C=C/c2cc(O)cc(O)c2)c1 | – | – | 63.5 | 1.2 |
| O=C(/C=C/c1ccccc1)Nc1ccc(O)c(/C=C/c2cc(O)cc(O)c2)c1 | 24.7 | – | 98.1 | 61.5 |
| Oc1ccc(-c2ccc(O)c(/C=C/c3cc(O)cc(O)c3)c2)cc1 | 15.4 | 30 | 86.3 | 75.4 |
| C/C=C/C(=O)Nc1ccc(O)c(/C=C/c2cc(O)cc(O)c2)c1 | – | – | 52.7 | 0.6 |
| O=C(/C=C/c1ccccc1)Nc1ccc(-c2cnc3cc(O)ccc3c2)cc1 | – | – | 82.3 | 55.4 |
| Oc1cc(O)cc(/C=C/c2ccc(-c3ccsc3)cc2)c1 | 19.1 | 31.9 | 78.5 | 63.2 |
| NC(=O)/C=C/c1ccc(/C=C/c2cc(O)cc(O)c2)cc1 | – | – | 29.8 | 3.9 |
| Oc1ccc2cc(-c3ccc(Cl)cc3Cl)cnc2c1 | 16.7 | – | – | – |
| CNC(=O)/C=C/c1cc(/C=C/c2cc(O)cc(O)c2)ccc1O | – | – | 45 | 2.4 |
